Reference: article PMC12514841 (Protein Science : A Publication of the Protein Society, 2025)
In brackets after ≈: the same amount, converted by molar mass. Several values for one entry are separate records, joined by “and”; a condition that tells them apart may be missing. Equal values may be shown once. Read-outs that look alike come from different tables or passages of the source.

Key:
wild-type BlaC = molecular target: T1, wild-type BlaC (Mycobacterium tuberculosis, UniProt P9WKD3); format: biochemical
T1 construct: 6xHis tag with TEV cleavage site (N); made in house; host or cells: E. coli BL21 (DE3) pLysS
T1 sequence (P9WKD3 35-307): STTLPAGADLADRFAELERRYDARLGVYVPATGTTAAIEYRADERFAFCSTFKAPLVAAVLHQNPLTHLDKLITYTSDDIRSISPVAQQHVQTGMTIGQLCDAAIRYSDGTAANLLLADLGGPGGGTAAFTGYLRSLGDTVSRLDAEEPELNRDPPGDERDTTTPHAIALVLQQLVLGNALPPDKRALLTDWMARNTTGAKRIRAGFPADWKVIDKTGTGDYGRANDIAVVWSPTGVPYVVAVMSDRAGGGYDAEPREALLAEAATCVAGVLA

[1] = system: E. coli KA797 cells producing BlaC I105Y; format: cell-based
[2] = system: E. coli KA797 cells producing BlaC G132N; format: cell-based
[3] = system: E. coli KA797 cells producing BlaC I105Y-S130G; format: cell-based
[4] = system: E. coli KA797 cells producing BlaC I105G; format: cell-based
[5] = system: E. coli KA797 cells producing wild-type BlaC; assay: Minimum inhibitory concentration determination; format: cell-based; details: Escherichia coli
Method: (§1) The MIC was determined for E. coli KA797 cells carrying various pUK21‐blaC plasmids with the lac promoter and tat‐signal peptide upstream of the blaC gene (Figure S7) (Radojković, van Ingen, et al., [2025]). Overnight cultures of E. coli were inoculated into fresh LB medium with 50 μg/mL kanamycin and incubated at 37°C until OD600 reached 2. […] The concentration of the selection antibiotic was increased in 2‐fold increments. The plate was incubated for 16 h at 37°C in a Bioscreen C Pro plate reader with continuous shaking, and the OD600 was recorded every 15 min. The MIC was defined as the concentration of the selection antibiotic at which no increase in OD600 was observed.

[6] = system: E. coli KA797 cells producing BlaC I105G-G132N; format: cell-based
[7] = system: E. coli KA797 cells producing BlaC S130G; format: cell-based
wild-type (WT) BlaC [8] = molecular target: T2, wild-type (WT) BlaC (Mycobacterium tuberculosis, UniProt P9WKD3); format: biochemical; details: pH 6.4
T2 construct: 6xHis tag with TEV cleavage site (N); made in house; host or cells: E. coli BL21 (DE3) pLysS
T2 sequence (P9WKD3 35-307): T1 sequence (P9WKD3 35-307)

wild-type (WT) BlaC [9] = molecular target: T2, wild-type (WT) BlaC; design: method as in Radojković, Chikunova, et al., [2025]; details: 100 mM NaPi, pH 6.4, 25°C, ref Radojković, Chikunova, et al., [2025]; cited from earlier work
[10] = system: E. coli KA797 cells, pUK21 vector without blaC gene; assay: Minimum inhibitory concentration determination; format: cell-based; details: Escherichia coli, 16 h, 37°C, read-out: MIC carbenicillin
Method: as §1

[11] = in combination with carbenicillin at 50 μg/mL

Compound: O=C(O)[C@H]1/C(=C/CO)O[C@@H]2CC(=O)N21 [Clavulanic acid, clavulanic acid]
- incubation time after which the enzyme reaches its original activity again (wild-type BlaC): 2 h
- time to full inhibition of the enzyme (wild-type BlaC): < 5 min
- MIC clavulanic acid [1, 11]: 2 µg/mL
- MIC clavulanic acid [2, 11]: 1 µg/mL
- MIC clavulanic acid [3, 11]: 32 µg/mL
- MIC clavulanic acid [4, 11]: 4 µg/mL
- MIC ([5]; read-out: MIC clavulanic acid, in combination with carbenicillin at 50 μg/mL): 1 µg/mL
- MIC clavulanic acid [6, 11]: 16 µg/mL
- MIC clavulanic acid [7, 11]: 4 µg/mL

Compound: CC1(C)S[C@@H]2[C@H](NC(=O)[C@H](N)c3ccccc3)C(=O)N2[C@H]1C(=O)O [Ampicillin, ampicillin]
- KMapp (wild-type (WT) BlaC [8]): 46 ± 12 µM
- k cat /K M ^app relative to the wild-type (wild-type (WT) BlaC [8]): 1
- kcat (wild-type (WT) BlaC [8]): 9 ± 1 s⁻¹
- kcat/KMapp (wild-type (WT) BlaC [8]): 210000 ± 10000 M⁻¹ s⁻¹
- kcat/KMapp relative to the wild-type (wild-type (WT) BlaC [8]): 1
- K M ^app (wild-type (WT) BlaC [9]): 68 ± 3 µM
- k cat (wild-type (WT) BlaC [9]): 14 ± 2 s⁻¹
- k cat/K M ^app (wild-type (WT) BlaC [9]): 0.21 ± 0.01 μM^−1 s^−1 and 0.21 ± 0.01 ^a μM^−1 s^−1

Compound: CC1(C)S[C@@H]2[C@H](NC(=O)C(C(=O)O)c3ccccc3)C(=O)N2[C@H]1C(=O)O (stereo partly shown) [Carbenicillin, carbenicillin]
- MIC carbenicillin ([1]; 16 h, 37°C): 6400 µg/mL (≈ 16900 µM)
- k cat /K M ^app relative to the wild-type (wild-type (WT) BlaC [8]): 1
- MIC times lower than the wild-type [2]: 2 times
- MIC carbenicillin ([2]; 16 h, 37°C): 400 µg/mL (≈ 1060 µM)
- MIC carbenicillin ([3]; 16 h, 37°C): 800 µg/mL (≈ 2110 µM)
- MIC carbenicillin ([4]; 16 h, 37°C): 800 µg/mL (≈ 2110 µM)
- K M ^app (wild-type (WT) BlaC [9]): 5.5 ± 0.7 µM
- k cat (wild-type (WT) BlaC [9]): 0.51 ± 0.02 s⁻¹
- k cat/K M ^app (wild-type (WT) BlaC [9]): 0.09 ± 0.01 ^a μM^−1 s^−1
- MIC [10]: 10 µg/mL (≈ 26.4 µM)
- MIC ([5]; 16 h, 37°C, read-out: MIC carbenicillin): 800 µg/mL (≈ 2110 µM)
- MIC carbenicillin ([6]; 16 h, 37°C): 800 µg/mL (≈ 2110 µM)
- MIC carbenicillin ([7]; 16 h, 37°C): 100 µg/mL (≈ 264 µM)

Compound: O=C(Cc1cccs1)N[C@@H]1C(=O)N2C(C(=O)O)=C(/C=C/c3ccc([N+](=O)[O-])cc3[N+](=O)[O-])CS[C@H]12 [Nitrocefin, nitrocefin]
- K M ^app (wild-type (WT) BlaC [8]): 180 ± 70 µM
- k cat (wild-type (WT) BlaC [8]): 90 ± 20 s⁻¹
- k cat /K M ^app relative to the wild-type (wild-type (WT) BlaC [8]): 1
- k cat/K M ^app (wild-type (WT) BlaC [8]): 0.5 ± 0.2 ^a μM^−1 s^−1
